The source made the active and inactive calls. How the calls were made is not given here. Bridge positions count the residues as written; N and C are the ends. Peptide text beside a SMILES is read from it. * marks the point of attachment. ξ: configuration not given here. Pentadecanoyl(3ξ-OH,15-Gua) = N=C(N)NCCCCCCCCCCCCC(O)CC(=O)*
Target: Ubiquitin carboxyl-terminal hydrolase 8 (Homo sapiens) (UniProt P40818)
Assay: Ubiquitin-specific protease 8 inhibitors, concentration-effect, biochemical, validation of initial actives (AID 1645862);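 further: potency reflects inhibition of USP8 cleavage of a ubiquitin rhodamine substrate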
Details: recombinant USP8 deubiquitinase activity assay

Chain of Ubiquitin carboxyl-terminal hydrolase 8 (Homo sapiens) (P40818 whole entry, looked up): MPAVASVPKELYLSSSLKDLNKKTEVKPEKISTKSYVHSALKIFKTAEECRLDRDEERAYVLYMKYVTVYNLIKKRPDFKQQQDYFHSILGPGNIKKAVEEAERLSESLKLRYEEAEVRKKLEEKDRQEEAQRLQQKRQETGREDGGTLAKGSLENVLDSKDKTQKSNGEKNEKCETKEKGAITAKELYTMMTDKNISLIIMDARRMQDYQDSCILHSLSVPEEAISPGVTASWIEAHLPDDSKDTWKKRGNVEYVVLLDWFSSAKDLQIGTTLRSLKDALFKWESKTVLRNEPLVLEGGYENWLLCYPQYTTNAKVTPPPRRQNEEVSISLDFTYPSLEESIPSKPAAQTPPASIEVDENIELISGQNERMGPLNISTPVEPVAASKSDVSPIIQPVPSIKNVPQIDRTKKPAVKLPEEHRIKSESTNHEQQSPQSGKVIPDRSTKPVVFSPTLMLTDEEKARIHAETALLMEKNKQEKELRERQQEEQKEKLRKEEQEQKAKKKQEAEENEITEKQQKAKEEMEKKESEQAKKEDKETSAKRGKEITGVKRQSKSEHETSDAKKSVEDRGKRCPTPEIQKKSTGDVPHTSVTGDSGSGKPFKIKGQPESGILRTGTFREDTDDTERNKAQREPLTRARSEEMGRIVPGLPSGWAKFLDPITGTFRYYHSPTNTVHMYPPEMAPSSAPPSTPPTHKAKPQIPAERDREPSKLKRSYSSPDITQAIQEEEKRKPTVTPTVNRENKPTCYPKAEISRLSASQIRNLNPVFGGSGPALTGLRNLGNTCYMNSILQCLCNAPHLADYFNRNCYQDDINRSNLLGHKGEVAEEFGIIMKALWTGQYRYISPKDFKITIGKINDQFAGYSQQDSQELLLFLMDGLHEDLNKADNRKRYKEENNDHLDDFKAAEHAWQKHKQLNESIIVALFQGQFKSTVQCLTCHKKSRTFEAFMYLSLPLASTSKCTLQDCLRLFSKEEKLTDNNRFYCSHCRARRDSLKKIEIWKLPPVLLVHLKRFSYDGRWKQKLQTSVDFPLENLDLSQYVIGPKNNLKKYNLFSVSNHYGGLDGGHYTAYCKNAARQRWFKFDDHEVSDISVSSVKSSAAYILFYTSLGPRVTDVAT

Row | IC50 | Structure (SMILES)
1 | 39.2 µM | Cc1nc(-c2noc(-c3cccc(F)c3)n2)cn1CC(=O)Nc1ccccc1
2 | 22.4 µM | O=C(Nc1ccccc1F)c1nc(-c2cn(-c3ccc(F)cc3)nn2)no1
3 | 38.4 µM | Cn1nc(C(=O)N2CCC(c3ccccc3)C2)c2c1-c1ccsc1CC2 (centres undefined)
4 | > 40 µM (inactive) | Cc1noc(-c2cc(=O)n(CC(=O)NCc3ccccc3F)c3ccccc23)n1
5 | > 40 µM (inactive) | O=C(c1cc(S(=O)(=O)Nc2ccc(Cl)cc2)ccc1Cl)N1CCCc2ccccc21
6 | 6.23 µM | CCCCCCCCCc1cc(OC(=O)c2c(CCCCCCCCC)cc(O)cc2O[C@@H]2O[C@H](CO)[C@@H](O)[C@H](O)[C@H]2O)cc(O)c1C(=O)O
7 | > 40 µM (inactive) | COc1ccc(-c2cc(C(=O)Nc3ccnn3Cc3ccccc3)no2)cc1
8 | > 40 µM (inactive) | CCc1nc(SCC(=O)Nc2ccc(Cl)c(Cl)c2)c2oc3ccccc3c2n1
9 | > 40 µM (inactive) | COc1ccc(-c2noc([C@@H]3C[C@H](NC(=O)Nc4ccc(C)cc4)CN3C)n2)cc1
10 | > 40 µM (inactive) | O=C(Cn1ncc2c(=O)oc3ccccc3c21)NCc1ccc2c(c1)OCO2
11 | > 40 µM (inactive) | COc1cccc(C(=O)Cn2c(=O)n(CCCC(=O)NCc3ccco3)c(=O)c3ccc(Cl)cc32)c1
12 | 5.57 µM | O=C(NC1(O)C(=O)c2ccccc2C1=O)c1ccc(-c2csnn2)cc1
13 | > 40 µM (inactive) | C[C@H](NC(=O)Cc1ccccc1F)c1nc2cc(-c3ccccc3F)ncn2n1
14 | > 40 µM (inactive) | Cc1ccc(NC(=O)Nc2ccccc2OCc2cc(=O)n3cc(C)ccc3n2)cc1
15 | > 40 µM (inactive) | CCN(CC)C(=O)c1sc(NC(=O)/C=C/c2c(F)cccc2Cl)c(C#N)c1C
16 | > 40 µM (inactive) | O=C(Cn1cc(C(=O)c2ccccc2)c(=O)c2cc(F)ccc21)Nc1ccc2c(c1)OCCO2
17 | > 40 µM (inactive) | CCOC(=O)c1cc2c(ccn2-c2ccc(F)cc2)n1CC(=O)Nc1ccc2c(c1)OCCO2
18 | > 40 µM (inactive) | CCOc1ccc(-n2c(=O)c3sccc3n(CC(=O)Nc3cccc(C)c3)c2=O)cc1
19 | > 40 µM (inactive) | O=C(c1cscn1)N1CCC2(CC1)CC1(CO2)Nc2ccccc2-n2cccc21 (centres undefined)
20 | > 40 µM (inactive) | O=C(CCCn1c(=O)c2ccccc2n(CC(=O)c2ccc(Br)cc2)c1=O)NC1CCCC1
21 | > 40 µM (inactive) | COc1ccc(-c2nc(-c3cc4cc(OC)ccc4[nH]c3=O)no2)cc1
22 | > 40 µM (inactive) | O=C(CCc1nnc2n(Cc3ccccc3Cl)c(=O)c3ccccc3n12)NCc1ccccc1

Row | IC50 | Structure (SMILES)
23 | > 40 µM (inactive) | CCc1cccc(C)c1NC(=O)Cn1c(C(C)NC(=O)c2ccc(C)cc2)nc2ccccc21 (centres undefined)
24 | > 40 µM (inactive) | O=C(Nc1ccc(Cn2cnc(-c3nc(-c4ccccc4)no3)c2)cc1)c1ccccc1F
25 | > 40 µM (inactive) | Cc1c(-c2nsc(NC(=O)c3ccc(Cl)cc3)n2)nnn1-c1ccccc1F
26 | > 40 µM (inactive) | COc1ccc(-c2cc3n(c(=N)c2C#N)CCc2cc4c(cc2-3)OCO4)cc1O
27 | > 40 µM (inactive) | CC1NC(=O)C(CC(N)=O)NC(=O)C(C(C)O)NC(=O)C(Cc2ccc(O)cc2)NC(=O)C(C(C)C)NC(=O)C(NC(=O)CC(O)CCCCCCCCCCCCN=C(N)N)C(C)OC1=O (centres undefined) ({Pentadecanoyl(3ξ-OH,15-Gua)}-TVYTNA; ester 1-C; configuration not given here)
28 | 36.8 µM | Cc1ccccc1NC(=O)Cn1c(=O)n(-c2ccc(CC(=O)NCCc3ccccc3)cc2)c(=O)c2sccc21
29 | > 40 µM (inactive) | CCOc1cc2c(cc1OCC)C(c1cc3c(cc1Br)OCO3)NCC2 (centres undefined)
30 | 3.33 µM | COc1cc(C)cc2c1C(=O)c1c(cc(O)c(Cl)c1O)C2=O
31 | > 40 µM (inactive) | Cc1ccc2[nH]c(=O)c(-c3nc4ccccn4c3NCc3ccccc3)cc2c1
32 | > 40 µM (inactive) | Cc1ccc(NC(=O)Cc2sc(Nc3ccc(C)cc3)nc2O)cc1
33 | > 40 µM (inactive) | O=c1c2cc(Br)ccc2[nH]c(=S)n1Cc1cccnc1
34 | 7.11 µM | CC(C)(C)C(=O)[C@@H]1[C@@H](C(=O)c2ccc3c(c2)OCO3)[C@@]2(C(=O)Nc3ccccc32)[C@H]2c3ccccc3C=CN12
35 | > 40 µM (inactive) | COc1cc2c(cc1OC)-c1cc(Nc3ccc(Br)cc3)nc(=O)n1CC2
36 | > 40 µM (inactive) | CCCCCC(=O)C(CCCC)c1oc(=O)c(CCCC)c(O)c1CCCC (centres undefined)
37 | > 40 µM (inactive) | Cc1[nH]c2ccc(F)cc2c(=O)c1CN1CCCCC1
38 | > 40 µM (inactive) | COc1ccc(-n2ccc(=O)c(-c3nc(-c4ccc(F)cc4)no3)n2)cc1
39 | > 40 µM (inactive) | O=C(O)c1nccnc1C(=O)N1CCc2ccccc2C1
40 | > 40 µM (inactive) | Cc1noc(-c2ccnc(-n3cnc(C(=O)NCC4CC4)c3)c2)n1
41 | > 40 µM (inactive) | Cc1nn(-c2ccccc2)c2c1nc(CCC(=O)NC1CCCCC1)c(=O)n2C
42 | > 40 µM (inactive) | Nc1ncc(-c2ccc(F)cc2)c(C2CCCN(C(=O)c3ccn[nH]3)C2)n1 (centres undefined)
43 | > 40 µM (inactive) | COc1ccc(N/C=C/c2onc(C)c2[N+](=O)[O-])c(OC)c1
44 | > 40 µM (inactive) | COc1cc2c(=O)n(CC3CCCO3)c(=O)n(CC(=O)c3ccc4c(c3)OCO4)c2cc1OC (centres undefined)

Reference: PubChem BioAssay AID1645862 (Buhrlage Lab, Dana-Farber Cancer Institute and Novartis …, 2021)
